Structures can show the parent of a compound that is named as a salt.

Assay type in all cases: biochemical
Assay [1] has as its target T1, human JAK1 (a.a. 837-1142) (Homo sapiens, UniProt P23458).
T1 construct: human JAK1 (a.a. 837-1142); His tag (N); made in house; host or cells: insect cells (baculovirus)
As to the kind of experiment: In vitro JAK kinase assay (HTRF, phosphorylation of a biotinylated peptide), JAK1. The note with it: Table B1; read-out: JAK1 IC50. An outline of the steps:
(§1)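 Kinase reactions ran at room temperature for 1 h with ATP matched per isoform (JAK1 90 μM, JAK2 30 μM, JAK3 3 μM). After an EDTA stop, the phosphorylated biotin-peptide was read by HTRF using Eu-Py20 and SA-APC after 40 min binding.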
In general terms: In TR-FRET formats the signal depends on donor and acceptor labels being close together.

The target of assay [2] is T2, human JAK2 (a.a. 828-1132) (Homo sapiens, UniProt O60674).
T2 construct: JAK2 (a.a. 828-1132); His tag (N); made in house; host or cells: insect cells (baculovirus)
T2 sequence (O60674 828-1132): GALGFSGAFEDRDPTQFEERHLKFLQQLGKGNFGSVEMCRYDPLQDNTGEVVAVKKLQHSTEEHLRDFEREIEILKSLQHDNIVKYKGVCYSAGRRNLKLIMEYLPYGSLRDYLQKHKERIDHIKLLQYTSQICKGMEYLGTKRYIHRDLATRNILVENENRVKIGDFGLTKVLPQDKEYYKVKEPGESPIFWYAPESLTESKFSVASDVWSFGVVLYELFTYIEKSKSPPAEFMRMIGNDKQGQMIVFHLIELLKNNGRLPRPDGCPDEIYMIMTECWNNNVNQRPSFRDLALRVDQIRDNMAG
As to the kind of experiment: In vitro JAK kinase assay (HTRF, phosphorylation of a biotinylated peptide), JAK2. As to conditions: Table B1. An outline of the steps:
as §1

For assay [3], the target named is T3, human JAK3 (a.a. 781-1124) (Homo sapiens, UniProt P52333).
T3 construct: JAK3 (a.a. 781-1124); His tag (N); made in house; host or cells: insect cells (baculovirus)
T3 sequence (P52333 781-1124): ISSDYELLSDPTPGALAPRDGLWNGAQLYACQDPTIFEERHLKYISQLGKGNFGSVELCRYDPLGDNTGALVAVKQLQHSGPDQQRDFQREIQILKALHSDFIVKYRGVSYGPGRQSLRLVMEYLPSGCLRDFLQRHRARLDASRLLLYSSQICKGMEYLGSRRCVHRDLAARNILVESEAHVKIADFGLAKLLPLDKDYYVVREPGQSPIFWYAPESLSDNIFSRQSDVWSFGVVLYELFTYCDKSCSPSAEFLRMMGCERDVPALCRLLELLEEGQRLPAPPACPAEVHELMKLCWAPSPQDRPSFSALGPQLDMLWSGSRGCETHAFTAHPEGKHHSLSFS
As to the kind of experiment: In vitro JAK kinase assay (HTRF, phosphorylation of a biotinylated peptide), JAK3. The note with it: Table B1. An outline of the steps: as §1

The target of another assay is TYK2 (Homo sapiens, UniProt P29597). As to the kind of experiment: TYK2 kinase inhibition (Table A1). As to conditions: Table B1.
Sequence of TYK2 (P29597 whole entry): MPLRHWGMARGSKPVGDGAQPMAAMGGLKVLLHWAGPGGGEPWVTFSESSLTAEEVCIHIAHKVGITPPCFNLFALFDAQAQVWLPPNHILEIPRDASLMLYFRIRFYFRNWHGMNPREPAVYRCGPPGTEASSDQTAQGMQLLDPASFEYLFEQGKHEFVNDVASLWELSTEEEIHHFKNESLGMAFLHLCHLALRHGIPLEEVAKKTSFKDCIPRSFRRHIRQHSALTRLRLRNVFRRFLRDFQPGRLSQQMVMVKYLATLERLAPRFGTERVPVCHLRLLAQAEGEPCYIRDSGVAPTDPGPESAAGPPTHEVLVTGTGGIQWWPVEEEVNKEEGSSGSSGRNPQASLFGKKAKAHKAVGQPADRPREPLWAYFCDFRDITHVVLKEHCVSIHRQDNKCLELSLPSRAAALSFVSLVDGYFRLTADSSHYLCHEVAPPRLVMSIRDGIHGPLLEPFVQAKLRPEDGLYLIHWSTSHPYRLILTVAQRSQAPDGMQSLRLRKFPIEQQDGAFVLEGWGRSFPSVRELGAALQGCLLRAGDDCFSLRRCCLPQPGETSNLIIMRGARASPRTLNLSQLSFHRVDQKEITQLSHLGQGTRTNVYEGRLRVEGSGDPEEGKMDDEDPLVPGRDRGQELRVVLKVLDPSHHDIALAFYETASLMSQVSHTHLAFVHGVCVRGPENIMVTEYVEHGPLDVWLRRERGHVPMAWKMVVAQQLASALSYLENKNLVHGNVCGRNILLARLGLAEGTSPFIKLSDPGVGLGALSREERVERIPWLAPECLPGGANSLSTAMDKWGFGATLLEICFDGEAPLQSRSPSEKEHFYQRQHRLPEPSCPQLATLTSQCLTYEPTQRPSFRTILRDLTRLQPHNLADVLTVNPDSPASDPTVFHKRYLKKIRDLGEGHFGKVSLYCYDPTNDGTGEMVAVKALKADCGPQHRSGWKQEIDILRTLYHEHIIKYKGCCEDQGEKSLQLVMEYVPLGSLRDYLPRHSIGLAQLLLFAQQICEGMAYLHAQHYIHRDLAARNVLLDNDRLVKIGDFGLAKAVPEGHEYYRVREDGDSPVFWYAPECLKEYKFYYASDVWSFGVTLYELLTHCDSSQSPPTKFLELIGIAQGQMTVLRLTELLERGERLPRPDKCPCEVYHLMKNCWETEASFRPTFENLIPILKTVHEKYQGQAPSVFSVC
Assay [4] has as its target T4, Recombinant Human Anaplastic Lymphoma Kinase (Homo sapiens, UniProt Q9UM73).
T4 construct: purchased Invitrogen, Carlsbad, Calif
As to the kind of experiment: ALK HTRF kinase assay. As to conditions: compound at a concentration of 500 nM or 1 mM (not specified); cells shown as percentage. An outline of the steps:
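Readout was HTRF between a Eu-W1024 anti-phosphotyrosine antibody and streptavidin-APC bound to biotinylated peptide phosphorylated by recombinant human ALK. IC50 values came from a four-parameter logistic fit.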

T1 sequence (P23458 849-1154): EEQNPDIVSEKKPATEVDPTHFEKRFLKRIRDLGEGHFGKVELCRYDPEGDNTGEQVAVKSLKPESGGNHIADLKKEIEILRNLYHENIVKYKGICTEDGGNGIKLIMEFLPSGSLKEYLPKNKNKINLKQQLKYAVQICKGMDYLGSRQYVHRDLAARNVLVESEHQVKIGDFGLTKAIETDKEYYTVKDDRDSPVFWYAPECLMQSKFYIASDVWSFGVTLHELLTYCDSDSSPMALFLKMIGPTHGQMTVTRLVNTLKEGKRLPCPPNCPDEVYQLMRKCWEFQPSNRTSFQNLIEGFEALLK
T4 sequence (Q9UM73 19-1620): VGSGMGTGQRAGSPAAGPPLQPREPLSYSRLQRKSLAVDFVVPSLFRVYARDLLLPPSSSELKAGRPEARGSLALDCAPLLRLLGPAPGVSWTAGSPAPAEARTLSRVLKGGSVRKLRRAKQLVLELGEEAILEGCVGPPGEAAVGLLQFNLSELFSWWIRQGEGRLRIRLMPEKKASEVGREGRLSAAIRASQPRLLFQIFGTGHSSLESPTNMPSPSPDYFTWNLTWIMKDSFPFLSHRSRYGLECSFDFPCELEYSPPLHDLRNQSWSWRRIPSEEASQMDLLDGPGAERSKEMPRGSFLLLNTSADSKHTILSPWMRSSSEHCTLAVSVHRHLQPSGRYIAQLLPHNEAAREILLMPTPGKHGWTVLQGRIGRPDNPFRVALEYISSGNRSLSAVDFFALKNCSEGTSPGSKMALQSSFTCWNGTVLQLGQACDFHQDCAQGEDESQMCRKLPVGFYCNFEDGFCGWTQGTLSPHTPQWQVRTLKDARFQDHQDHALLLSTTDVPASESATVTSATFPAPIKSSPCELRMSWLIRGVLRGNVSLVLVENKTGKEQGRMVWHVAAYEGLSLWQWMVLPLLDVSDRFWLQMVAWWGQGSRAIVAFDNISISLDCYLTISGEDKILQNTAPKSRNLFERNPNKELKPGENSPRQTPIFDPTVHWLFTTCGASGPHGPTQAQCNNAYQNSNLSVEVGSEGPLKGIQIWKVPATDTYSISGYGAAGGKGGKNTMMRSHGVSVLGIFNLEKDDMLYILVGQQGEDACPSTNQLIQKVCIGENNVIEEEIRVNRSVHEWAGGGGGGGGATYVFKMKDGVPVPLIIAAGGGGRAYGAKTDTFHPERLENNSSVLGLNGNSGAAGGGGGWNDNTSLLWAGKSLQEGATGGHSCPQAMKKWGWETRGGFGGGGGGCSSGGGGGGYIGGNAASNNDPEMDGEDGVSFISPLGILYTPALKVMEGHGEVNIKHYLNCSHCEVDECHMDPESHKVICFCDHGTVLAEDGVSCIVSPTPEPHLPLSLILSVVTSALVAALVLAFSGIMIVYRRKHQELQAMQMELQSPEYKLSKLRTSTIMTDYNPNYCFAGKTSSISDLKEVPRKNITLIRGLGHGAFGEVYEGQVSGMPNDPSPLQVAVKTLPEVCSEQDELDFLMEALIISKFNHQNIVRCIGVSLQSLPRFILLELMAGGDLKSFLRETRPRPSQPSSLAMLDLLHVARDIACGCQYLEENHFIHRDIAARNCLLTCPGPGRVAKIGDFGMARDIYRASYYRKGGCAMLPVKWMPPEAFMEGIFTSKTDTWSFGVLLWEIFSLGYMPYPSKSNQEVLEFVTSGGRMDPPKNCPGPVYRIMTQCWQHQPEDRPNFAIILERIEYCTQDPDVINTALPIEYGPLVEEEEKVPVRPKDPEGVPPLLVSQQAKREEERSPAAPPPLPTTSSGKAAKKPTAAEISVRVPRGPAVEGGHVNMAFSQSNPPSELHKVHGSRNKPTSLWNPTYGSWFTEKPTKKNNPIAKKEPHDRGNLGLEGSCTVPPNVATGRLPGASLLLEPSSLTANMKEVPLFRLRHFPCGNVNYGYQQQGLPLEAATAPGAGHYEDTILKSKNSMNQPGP

The term IC50 denotes the midpoint of a concentration-inhibition curve. In the case of `Cc1occc1NC(=O)Nc1ccc2cc1CCc1cccc(c1)Nc1ncc(Cl)c(n1)N2` [Example B118, N-[6-Chloro-2,4,8,22-tetraazatetracyclo[14.3.1.1(3,7).1(9,13)]docosa-1(20), 3(22),4,6,9(21),10,12,16,18-nonaen-12-yl]-N′-(2-methyl-3-furyl)urea trifluoroacetate], the IC50 in assay [1] was determined as 1.3 nM; in assay [2], 2.1 nM; in assay [3], 20 nM; against TYK2, 7.7 nM. In addition, in assay [4], the “ALK % of inhibition at a concentration of 500 nM or 1 mM” value (from here on “ALK % of inhibition”) was 22%.

As for `O=C(Nc1ccc2cc1CCc1cccc(c1)Nc1ncc(Cl)c(n1)N2)NC1CCCCC1` [Example B119, N-[6-Chloro-2,4,8,22-tetraazatetracyclo[14.3.1.1(3,7).1(9,13)]docosa-1(20), 3(22),4,6,9(21),10,12,16,18-nonaen-12-yl]-N′-cyclohexylurea trifluoroacetate], the IC50 in assay [1] worked out at 2.9 nM; in assay [2], 3.3 nM; in assay [3], 48 nM; on TYK2, 9.8 nM. For the same molecule, in assay [4], the “ALK % of inhibition” value came to 19%.

Regarding `Cc1csc(NC(=O)Nc2ccc3cc2CCc2cccc(c2)Nc2ncc(Cl)c(n2)N3)c1` [Example B120, N-[6-Chloro-2,4,8,22-tetraazatetracyclo[14.3.1.1(3,7).1(9,13)]docosa-1(20), 3(22),4,6,9(21),10,12,16,18-nonaen-12-yl]-N′-(4-methyl-2-thienyl)urea trifluoroacetate], the IC50 in assay [1] came out at 6.7 nM; in assay [2] it was 7.9 nM; in assay [3] it was 68 nM; on TYK2, 25 nM. In addition, the “ALK % of inhibition” value in assay [4] is recorded as 16%.

Turning to `O=C(Nc1ccc(Cl)nc1)Nc1ccc2cc1CCc1cccc(c1)Nc1ncc(Cl)c(n1)N2` [Example B121, N-(6-Chloropyridin-3-yl)-N′-[6-chloro-2,4,8,22-tetraazatetracyclo[14.3.1.1(3,7).1(9,13)]docosa-1(20),3(22),4,6,9(21),10,12,16,18-nonaen-12-yl]urea bis(trifluoroacetate)], the IC50 was found to be 2.2 nM in assay [1], 7.9 nM in assay [2], 50 nM in assay [3] and 19 nM against TYK2. Besides, in assay [4], the “ALK % of inhibition” value came out at 39%.

`Cc1cccc(Cl)c1NC(=O)Nc1ccc2cc1CCc1cccc(c1)Nc1ncc(Cl)c(n1)N2` [Example B122, N-(2-Chloro-6-methylphenyl)-N′-[6-chloro-2,4,8,22-tetraazatetracyclo[14.3.1.1(3,7).1(9,13)]docosa-1(20),3(22),4,6,9(21),10,12,16,18-nonaen-12-yl]urea trifluoroacetate]: the half-inhibitory concentration (IC50) came out at 5.6 nM in assay [1], 6.7 nM in assay [2], 30 nM in assay [3] and 24 nM at TYK2. In addition, the “ALK % of inhibition” value in assay [4] stood at 13%.

`Cc1ccc(Cl)cc1NC(=O)Nc1ccc2cc1CCc1cccc(c1)Nc1ncc(Cl)c(n1)N2` [Example B123, N-(5-Chloro-2-methylphenyl)-N′-[6-chloro-2,4,8,22-tetraazatetracyclo[14.3.1.1(3,7).1(9,13)]docosa-1(20),3(22),4,6,9(21),10,12,16,18-nonaen-12-yl]urea trifluoroacetate]: the IC50 came out at 7.9 nM in assay [1], 15 nM in assay [2], 110 nM in assay [3] and 32 nM against TYK2. Moreover, the “ALK % of inhibition” value in assay [4] is 16%.

Take `O=C(Nc1ccc2cc1CCc1cccc(c1)Nc1ncc(Cl)c(n1)N2)Nc1cccc2ccccc12` [Example B124, N-[6-Chloro-2,4,8,22-tetraazatetracyclo[14.3.1.1(3,7).1(9,13)]docosa-1(20),3(22),4,6,9(21),10,12,16,18-nonaen-12-yl]-N′-1-naphthylurea trifluoroacetate]: the IC50 was found to be 3.9 nM in assay [1], 4.6 nM in assay [2], 33 nM in assay [3] and 13 nM on TYK2. Also, in assay [4], the “ALK % of inhibition” value turned out to be 17%.

For the origin of these results see patent publication US8871753B2, “Macrocyclic compounds and their use as kinase inhibitors” (Incyte Corporation, priority 2008, dated 2014).
